Laboratory results from US20220289794A1, “SYNTHETIC ANTIMICROBIAL PEPTIDES” (priority 2019, published 2022).
Values after ≈ are worked out from the molar mass of the structure shown. Like-named read-outs stand apart in the source and are kept apart here. Non-standard residues stand in square brackets, D forms with d. Residues, ends and D or L forms follow the SMILES beside them. Dip = N[C@H](C(=O)O)C(c1ccccc1)c1ccccc1; 2Nal = N[C@@H](Cc1ccc2ccccc2c1)C(=O)O

Legend:
[1] = tested on: Streptococcus pneumoniae ATCC 51938; details: S. pneumoniae ATCC 51938
E. coli (ATCC BAA-2452) = experiment: Broad-spectrum activity against Gram-Negative bacteria (MIC); type: cell-based; details: Table 16, Gram-negative panel
[2] = tested on: Methicillin-resistant Staphylococcus aureus MRSA (ATCC BAA-1556)
[3] = tested on: Klebsiella pneumoniae ATCC 13883; details: Table 16, Gram-negative panel
[4] = tested on: Enterococcus faecalis ATCC 51575; details: E. faecalis ATCC 51575
[5] = tested on: P. aeruginosa (ATCC 10145); experiment: Broad-spectrum activity against Gram-Negative bacteria (MIC); type: cell-based; details: Table 16, Gram-negative panel
[6] = tested on: Enterococcus faecium ATCC 27270; details: E. faecium ATCC 27270
[7] = tested on: Enterococcus faecalis ATCC 29212; details: E. faecalis ATCC 29212
[8] = tested on: Streptococcus pneumoniae ATCC 49619; details: S. pneumoniae ATCC 49619
[9] = tested on: Klebsiella pneumoniae (ATCC BAA-1705); details: Table 16, Gram-negative panel
B. subtilis (ATCC-6633) = experiment: Broad-spectrum activity against Gram-Positive bacteria (MIC); type: cell-based; set-up: unit not given here
B. cereus (ATCC-13061) = experiment: Broad-spectrum activity against Gram-Positive bacteria (MIC); type: cell-based; set-up: unit not given here
[10] = tested on: Escherichia coli (ATCC 25922)
[11] = tested on: Pseudomonas aeruginosa (ATCC 27883)
[12] = tested on: Enterococcus faecium ATCC 700221; details: E. faecium ATCC 700221
[13] = tested on: A. baumannii (ATCC BAA-1605); experiment: Broad-spectrum activity against Gram-Negative bacteria (MIC); type: cell-based; details: Table 16, Gram-negative panel
[14] = tested on: P. aeruginosa (ATCC BAA-1744); experiment: as above; type: cell-based; details: Table 16, Gram-negative panel
human red blood cells = tested on: human red blood cells; set-up: unit not given beside the values

| Compound | Broad-spectrum activity S. pneumoniae (ATCC 51938) [1] | MIC E. coli (ATCC BAA-2452) (E. coli (ATCC BAA-2452)) [µg/mL] | MIC MRSA ATCC BAA-1556 ([2]; ATCC BAA-1556) [µg/mL] | MIC K. pneumonia (ATCC 13883) [3] [µg/mL] | Broad-spectrum activity E. faecalis (ATCC 51575) [4] | MIC P. aeruginosa (ATCC 10145) [5] [µg/mL] | Broad-spectrum activity E. faecium (ATCC 27270) [6] | Broad-spectrum activity E. faecalis (ATCC 29212) [7] | Broad-spectrum activity S. pneumoniae (ATCC 49619) [8] | MIC K. pneumonia (ATCC BAA-1705) [9] [µg/mL] | Broad-spectrum activity B. subtilis (ATCC-6633) (B. subtilis (ATCC-6633)) | MIC S. aureus ATCC 29213 (S. aureus ATCC 29213; ATCC 29213) [µg/mL] | Broad-spectrum activity B. cereus (ATCC-13061) (B. cereus (ATCC-13061)) | MIC E. coli ATCC 25922 ([10]; ATCC 25922) [µg/mL] | MIC P. aeruginosa ATCC 27883 ([11]; ATCC 27883) [µg/mL] | Broad-spectrum activity E. faecium (ATCC 700221) [12] | MIC A. baumannii (ATCC BAA-1605) [13] [µg/mL] | MIC P. aeruginosa (ATCC BAA-1744) [14] [µg/mL] | HC50 (human red blood cells) | MIC MRSA ATCC BAA-1556 ([2]; MRSA ATCC BAA-1556) [µg/mL] | further results |
| --- | --- | --- | --- | --- | --- | --- | --- | --- | --- | --- | --- | --- | --- | --- | --- | --- | --- | --- | --- | --- | --- |
| N=C(N)NCCC[C@@H]1NC(=O)[C@H](CCCNC(=N)N)NC(=O)[C@H](C(c2ccccc2)c2ccccc2)NC(=O)[C@H](C(c2ccccc2)c2ccccc2)NC(=O)[C@H](C(c2ccccc2)c2ccccc2)NC(=O)[C@H](CCCNC(=N)N)NC1=O [IFX-002, c[Arg-Arg-Arg-Dip-Dip-Dip]] (cyclo([Dip][Dip][Dip]RRR)) | 25 | 25 (≈ 22 µM) | 3.1 (≈ 2.72 µM) | 50 (≈ 43.9 µM) | 12.5 | 50 (≈ 43.9 µM) | 6.2 | 12.5 | 50 | 12.5 (≈ 11 µM) | 6.2 | 3.1 (≈ 2.72 µM) | 12.5 | 12.5 (≈ 11 µM) | 12.5 (≈ 11 µM) | 6.2 | 25 (≈ 22 µM) | 25 (≈ 22 µM) | 205 | – | – |
| N=C(N)NCCC[C@@H]1NC(=O)[C@H](CCCNC(=N)N)NC(=O)[C@H](C(c2ccccc2)c2ccccc2)NC(=O)[C@H](Cc2c[nH]c3ccccc23)NC(=O)[C@H](C(c2ccccc2)c2ccccc2)NC(=O)[C@H](CCCNC(=N)N)NC1=O [IFX-021, c[Arg-Arg-Arg-Dip-Trp-Dip]] (cyclo([Dip]RRR[Dip]W)) | 25 | 12.5 (≈ 11.3 µM) | – | > 50 | 12.5 | 50 (≈ 45.4 µM) | 6.2 | 12.5 | 50 | 12.5 (≈ 11.3 µM) | 3.1 | – | 6.2 | – | – | 3.1 | 25 (≈ 22.7 µM) | 25 (≈ 22.7 µM) | 260 | – | – |
| N=C(N)NCCC[C@@H]1NC(=O)[C@H](CCCNC(=N)N)NC(=O)[C@H](Cc2ccc3ccccc3c2)NC(=O)[C@H](Cc2ccc3ccccc3c2)NC(=O)[C@H](CCCNC(=N)N)NC(=O)[C@H](CCCNC(=N)N)NC(=O)[C@H](Cc2ccc3ccccc3c2)NC1=O [IFX-019, c[Arg-Arg-NaI-NaI-Arg-Arg-NaI]] (cyclo(R[2Nal]RR[2Nal][2Nal]R)) | 12.5 | 6.2 (≈ 5.1 µM) | 6.2 (≈ 5.1 µM) | 50 (≈ 41.1 µM) | 6.2 | 25 (≈ 20.6 µM) | 1.5 | 3.1 | 25 | 25 (≈ 20.6 µM) | 1.5 | 6.2 (≈ 5.1 µM) | 1.5 | 50 (≈ 41.1 µM) | 50 (≈ 41.1 µM) | 1.5 | 12.5 (≈ 10.3 µM) | 12.5 (≈ 10.3 µM) | 325 | – | – |
| N=C(N)NCCC[C@@H]1NC(=O)[C@H](CCCNC(=N)N)NC(=O)[C@H](CCCNC(=N)N)NC(=O)[C@H](C(c2ccccc2)c2ccccc2)NC(=O)[C@H](C(c2ccccc2)c2ccccc2)NC(=O)[C@H](Cc2c[nH]c3ccccc23)NC1=O [IFX-020, c[Arg-Arg-Arg-Trp-Dip-Dip]] (cyclo([Dip][Dip]RRRW)) | 12.5 | 6.2 (≈ 5.63 µM) | – | 50 (≈ 45.4 µM) | 12.5 | 25 (≈ 22.7 µM) | 3.1 | 6.2 | 25 | 12.5 (≈ 11.3 µM) | 1.5 | – | 3.1 | – | – | 1.5 | 25 (≈ 22.7 µM) | 12.5 (≈ 11.3 µM) | 180 | – | – |
| N=C(N)NCCC[C@@H]1NC(=O)[C@H](CCCNC(=N)N)NC(=O)[C@H](C(c2ccccc2)c2ccccc2)NC(=O)[C@H](C(c2ccccc2)c2ccccc2)NC(=O)[C@H](CCCNC(=N)N)NC(=O)[C@H](CCCNC(=N)N)NC(=O)[C@H](C(c2ccccc2)c2ccccc2)NC1=O [IFX-016, c[Arg-Dip-Arg-Arg-Dip-Dip-Arg]] (cyclo(R[Dip]RR[Dip][Dip]R)) | 12.5 | 12.5 (≈ 9.66 µM) | 6.2 (≈ 4.79 µM) | 50 (≈ 38.6 µM) | 12.5 | 25 (≈ 19.3 µM) | 3.1 | 6.2 | 25 | 25 (≈ 19.3 µM) | 1.5 | 6.2 (≈ 4.79 µM) | 6.2 | >100 | 50 (≈ 38.6 µM) | 1.5 | 12.5 (≈ 9.66 µM) | 12.5 (≈ 9.66 µM) | 310 | – | – |
| c[Arg-arg-Arg-arg-dip-Trp-dip] [IFX-097] | 25 | 25 | – | > 50 | 12.5 | 50 | 3.1 | 6.2 | 50 | 25 | 1.5 | – | 6.2 | – | – | 6.2 | 12.5 | 50 | – | 3.1 | MIC S. aureus ATCC 29213 (S. aureus ATCC 29213; S. aureus ATCC 29213): 3.1 µg/mL; MIC E. coli ATCC 25922 ([10]; E. coli ATCC 25922): 12.5 µg/mL; MIC P. aeruginosa ATCC 27883 ([11]; P. aeruginosa ATCC 27883): 12.5 µg/mL |
| c[Arg-Arg-Arg-Arg-dip-Dip-Dip] [IFX-062] | 12.5 | 6.2 | – | 50 | 12.5 | 25 | 3.1 | 6.2 | 50 | 12.5 | 1.5 | – | 3.1 | – | – | 3.1 | 6.2 | 12.5 | – | 3.1 | MIC S. aureus ATCC 29213 (S. aureus ATCC 29213; S. aureus ATCC 29213): 3.1 µg/mL; MIC E. coli ATCC 25922 ([10]; E. coli ATCC 25922): 12.5 µg/mL; MIC P. aeruginosa ATCC 27883 ([11]; P. aeruginosa ATCC 27883): 6.2 µg/mL |
| c[Arg-Arg-Arg-arg-Dip-Trp-Dip] [IFX-091] | 12.5 | 12.5 | – | 50 | 12.5 | 25 | 3.1 | 6.2 | 50 | 12.5 | 1.5 | – | 3.1 | – | – | 6.2 | 12.5 | 25 | – | 3.1 | MIC S. aureus ATCC 29213 (S. aureus ATCC 29213; S. aureus ATCC 29213): 3.1 µg/mL; MIC E. coli ATCC 25922 ([10]; E. coli ATCC 25922): 12.5 µg/mL; MIC P. aeruginosa ATCC 27883 ([11]; P. aeruginosa ATCC 27883): 12.5 µg/mL |
